In brackets after ≈: the same amount, converted by molar mass.
What was measured:
[1] = tested on: Mycobacterium smegmatis ATCC 700084; assay: MIC, broth dilution micro-method, MS; assay type: cell-based; conditions: Mycolicibacterium smegmatis, ATCC700084, 72 h; 3 days at 37 °C
[2] = tested on: NHDF (normal human dermal fibroblasts); assay: WST-1 proliferation assay, NHDF; assay type: cell-based; conditions: Homo sapiens, NHDF, normal cells, 72 h exposure
[3] = tested on: Staphylococcus aureus ATCC 29213; assay: MBC, agar aliquot subculture method, SA; assay type: cell-based; conditions: ATCC29213
Procedure: (§1) For the above-mentioned strains/isolates, the agar aliquot subculture method was used as a test for bactericidal agents. After the MIC value determination, the inoculum was transferred to CaMH (Oxoid) for staphylococci, BHI (Oxoid) for enterococci, and Middlebrook 7H9 (Difco) for mycobacteria medium using a multipoint inoculator. As indicated above, the plates were incubated on a thermostat at 37 °C for the appropriate time for each micro-organism. The lowest concentration of test compound at which ≤5 colonies were obtained was then evaluated as MBC, corresponding to a 99.9% decrease in CFU relative to the original inoculum.

[4] = tested on: vancomycin-resistant E. faecalis VRE 342B; assay: MIC, microtitration broth method, VRE1; assay type: cell-based; conditions: Enterococcus faecalis, 24 h at 37 °C
Procedure: (§2) In vitro antibacterial activity of the synthesized compounds was evaluated against representatives of multidrug-resistant bacteria, three clinical isolates of methicillin-resistant S. aureus: clinical isolates of animal origin, MRSA 63718 (Department of Infectious Diseases and Microbiology, Faculty of Veterinary Medicine, University of Veterinary Sciences Brno, Czech Republic), carrying the mecA gene; and MRSA SA 630 and MRSA SA 3202 [52] (National Institute of Public Health, Prague, Czech Republic), both of human origin. […] Vancomycin- and methicillin-susceptible S. aureus ATCC 29213 and vancomycin-susceptible Enterococcus faecalis ATCC 29212, obtained from the American Type Culture Collection, were used as the reference and quality control strains. Three vanA gene-carrying vancomycin-resistant isolates of E. faecalis (VRE 342B, VRE 368, VRE 725B) were provided by Oravcova et al..
(§3) The minimum inhibitory concentrations (MICs) were evaluated by the microtitration broth method according to the CLSI, with some modifications. The compounds were dissolved in DMSO (Sigma, St. Louis, MO, USA) to obtain a concentration of […] and diluted in a microtitration plate in an appropriate medium, i.e., Cation Adjusted Mueller–Hinton Broth (CaMH, Oxoid, Basingstoke, UK) for staphylococci, and Brain Heart Infusion Broth (BHI, Oxoid) for enterococci, to reach the final concentration of 256–0.125 µg/mL. Microtiter plates were inoculated with test micro-organisms so that the final concentration of bacterial cells was 10^5. […] A drug-free control and a sterility control were included. The plates were incubated for 24 h at 37 °C for staphylococci and enterococci. […] The experiments were repeated three times.

[5] = tested on: methicillin-resistant S. aureus SA 630; assay: MBC, agar aliquot subculture method, MRSA2; assay type: cell-based; conditions: Staphylococcus aureus
Procedure: as §1

[6] = tested on: Enterococcus faecalis ATCC 29213; assay: MIC, microtitration broth method, EF; assay type: cell-based; conditions: ATCC29213, 24 h at 37 °C
[7] = tested on: vancomycin-resistant E. faecalis VRE 368; assay: MBC, agar aliquot subculture method, VRE2; assay type: cell-based; conditions: Enterococcus faecalis
Procedure: as §1

[8] = tested on: vancomycin-resistant E. faecalis VRE 368; assay: MIC, microtitration broth method, VRE2; assay type: cell-based; conditions: Enterococcus faecalis, 24 h at 37 °C
Procedure: as §2, §3

[9] = tested on: methicillin-resistant S. aureus 63718; assay: MIC, microtitration broth method, MRSA3; assay type: cell-based; conditions: Staphylococcus aureus; 24 h at 37 °C
Procedure: as §2, §3

[10] = tested on: methicillin-resistant S. aureus SA 630; assay: MIC, microtitration broth method, MRSA2; assay type: cell-based; conditions: Staphylococcus aureus; 24 h at 37 °C
Procedure: as §2, §3

[11] = tested on: T-47D (human breast cancer); assay: WST-1 proliferation assay, T47D; assay type: cell-based; conditions: Homo sapiens, T47D, 72 h exposure
[12] = tested on: methicillin-resistant S. aureus SA 3202; assay: MIC, microtitration broth method, MRSA1; assay type: cell-based; conditions: Staphylococcus aureus; 24 h at 37 °C
Procedure: as §2, §3

[13] = tested on: Mycobacterium marinum CAMP 5644; assay: MIC, broth dilution micro-method, MM; assay type: cell-based; conditions: CAMP5644, 504 h, 21 days at 28 °C
[14] = tested on: Mycobacterium marinum CAMP 5644; assay: MBC, agar aliquot subculture method, MM; assay type: cell-based; conditions: CAMP5644
Procedure, shortened: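 Following MIC determination, inoculum was transferred by multipoint inoculator onto CaMH (staphylococci), BHI (enterococci) or Middlebrook 7H9 (mycobacteria) and incubated at 37 °C for the organism-appropriate time. MBC was the lowest compound concentration giving ≤5 colonies, i.e. a 99.9% CFU decrease versus the original inoculum.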

[15] = tested on: methicillin-resistant S. aureus 63718; assay: MBC, agar aliquot subculture method, MRSA3; assay type: cell-based; conditions: Staphylococcus aureus
Procedure: as §1

[16] = tested on: A549 (human lung carcinoma); assay: WST-1 proliferation assay, A549; assay type: cell-based; conditions: Homo sapiens, A549, 72 h exposure
[17] = tested on: Mycobacterium smegmatis ATCC 700084; conditions: 3 days
[18] = tested on: Staphylococcus aureus ATCC 29213; assay: MIC, microtitration broth method, SA; assay type: cell-based; conditions: ATCC29213, 24 h at 37 °C
Procedure: as §2, §3

[19] = tested on: SNB-19 (human glioblastoma); assay: WST-1 proliferation assay, SNB-19; assay type: cell-based; conditions: Homo sapiens, SNB-19, 72 h exposure
[20] = tested on: methicillin-resistant S. aureus SA 3202; assay: MBC, agar aliquot subculture method, MRSA1; assay type: cell-based; conditions: Staphylococcus aureus
Procedure: as §1

[21] = tested on: Mycobacterium smegmatis ATCC 700084; assay: MBC, agar aliquot subculture method, MS; assay type: cell-based; conditions: Mycolicibacterium smegmatis, ATCC700084
Procedure, shortened: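 Post-MIC inoculum subcultured to CaMH/BHI/7H9 (staph/enterococci/mycobacteria), 37 °C, organism-specific time; endpoint ≤5 colonies (99.9% CFU drop).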

[22] = tested on: vancomycin-resistant E. faecalis VRE 725B; assay: MIC, microtitration broth method, VRE3; assay type: cell-based; conditions: Enterococcus faecalis, 24 h at 37 °C
Procedure: as §2, §3

Enterococcus faecalis = assay: MBC, agar aliquot subculture method, EF; assay type: cell-based; conditions: ATCC29213
Procedure: as §1

[23] = tested on: methicillin-resistant S. aureus 63718; set-up: method as in PMID 20386717; conditions: MRSA 63718, characterisation of the isolate; cited from earlier work

C[n+]1cc2c(c3ccccc31)Nc1ccc(OCc3cn(-c4ccc(Cl)cc4)nn3)cc1S2 [2m, 5-Methyl-9-(1-(4-chlorophenyl)-1H-1,2,3-triazol-4-yl)methoxy-12H-quino [3,4-b][1,4]benzothiazinium chloride]
MIC [1]: 8.19 µM
IC50 [2]: > 100 µM
MBC [3]: 65.5 µM
MIC [4]: > 524 µM
MBC [5]: 131 µM
MIC [6]: 65.5 µM
MBC [7]: 524 µM
MIC [8]: 524 µM
MIC [9]: 32.7 µM
MIC [10]: 131 µM
IC50 [11]: 8.9 ± 0.9 µM
MIC [12]: 131 µM
MIC [13]: 16.3 µM
MBC [14]: 16.3 µM
MBC [15]: 32.7 µM
IC50 [16]: 16.8 ± 1.2 µM
Conc.: lowest multiple of MBC with at least 70% inhibition of respiratory activity ([17]; MTT): 1× MIC (1× MBC)
Conc.: lowest multiple of MIC with at least 70% inhibition of respiratory activity ([17]; MTT): 1× MIC (1× MBC)
viability of M. smegmatis at MIC value ([17]; Mycobacterium smegmatis): less than 70%
M. smegmatis Respiration Inhibition ([17]; at the concentration (lowest multiple of MIC with at least 70% inhibition)): 87.1%
MIC [18]: 65.5 µM
IC50 [19]: 23.4 ± 1.5 µM
MBC [20]: 131 µM
MBC [21]: 8.19 µM
MIC [22]: 524 µM

CC1(C)S[C@@H]2[C@H](NC(=O)[C@H](N)c3ccccc3)C(=O)N2[C@H]1C(=O)O [AMP, ampicillin, reference compound]
MBC [3]: 5.72 µM (≈ 2 µg/mL)
MBC [5]: > 45.8 µM
MIC [6]: 2.81 µM (≈ 0.982 µg/mL)
MIC [9]: 45.8 µM (≈ 16 µg/mL)
MBC (Enterococcus faecalis): 2.81 µM (≈ 0.982 µg/mL)
MIC [10]: > 45.8 µM
MIC [12]: > 45.8 µM
MBC [15]: 45.8 µM (≈ 16 µg/mL)
MIC [18]: 5.72 µM (≈ 2 µg/mL)
MBC [20]: > 45.8 µM

CN[C@H](CC(C)C)C(=O)N[C@H]1C(=O)N[C@@H](CC(N)=O)C(=O)N[C@H]2C(=O)N[C@H]3C(=O)N[C@H](C(=O)N[C@H](C(=O)O)c4cc(O)cc(O)c4-c4cc3ccc4O)[C@H](O)c3ccc(c(Cl)c3)Oc3cc2cc(c3O[C@@H]2O[C@H](CO)[C@@H](O)[C@H](O)[C@H]2O[C@H]2C[C@](C)(N)[C@H](O)[C@H](C)O2)Oc2ccc(cc2Cl)[C@H]1O [vancomycin]
MIC of vancomycin [23]: 2 µg/mL
